Like-named read-outs stand apart in the source and are kept apart here.
Legend:
BT474 = experiment: Cytotoxicity assay (SRB), BT474; type: cell-based
How it was run: (§1)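 Cells grown in RPMI 1640 with 5% FBS were treated with compound for three days (HCT-116, LoVo, MCF-7) or six days (BT474). Viable cell mass was quantified by sulforhodamine B staining of TCA-fixed protein and read at 540 nm.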

LoVo = experiment: Cytotoxicity assay (SRB), LoVo; type: cell-based; details: Homo sapiens, LoVo, 72 h, LoVo cells, SRB, read-out: In Vitro Cellular Activity IC50 LOVO
How it was run: as §1

HCT-116 = experiment: Cytotoxicity assay (SRB), HCT-116; type: cell-based; details: Homo sapiens, HCT-116, 72 h, HCT116 cells, SRB, read-out: In Vitro Cellular Activity IC50 HCT116
How it was run: as §1

cyclin D1/cdk 4 enzyme = target: T1, cyclin D1/cdk 4 enzyme (Homo sapiens, UniProt P11802); experiment: CDK4 ELISA kinase assay (phospho-Rb ser 795 detection); type: biochemical
T1 construct: made in house; host or cells: Sf9 insect cells, recombinant baculovirus
T1 sequence (P11802 whole entry, species assumed): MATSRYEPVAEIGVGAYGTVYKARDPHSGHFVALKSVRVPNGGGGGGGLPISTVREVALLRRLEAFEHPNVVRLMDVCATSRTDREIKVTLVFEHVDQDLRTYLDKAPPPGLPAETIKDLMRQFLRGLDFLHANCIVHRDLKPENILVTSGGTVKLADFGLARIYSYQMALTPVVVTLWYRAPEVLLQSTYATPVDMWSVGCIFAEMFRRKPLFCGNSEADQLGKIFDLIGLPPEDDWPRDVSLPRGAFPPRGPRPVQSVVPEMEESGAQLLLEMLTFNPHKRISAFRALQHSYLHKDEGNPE
T1 sequence (P24385 whole entry partner, species assumed): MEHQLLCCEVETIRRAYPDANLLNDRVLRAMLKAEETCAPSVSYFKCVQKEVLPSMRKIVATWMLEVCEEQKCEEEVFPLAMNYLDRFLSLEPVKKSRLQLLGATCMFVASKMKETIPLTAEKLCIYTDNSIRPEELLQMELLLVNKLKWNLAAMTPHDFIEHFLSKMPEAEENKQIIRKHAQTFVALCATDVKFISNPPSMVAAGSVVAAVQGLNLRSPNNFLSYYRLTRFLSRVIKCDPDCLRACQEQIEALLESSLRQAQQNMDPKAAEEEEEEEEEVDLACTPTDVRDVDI
How it was run: (§2)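 ELISA format: plate-bound GST-Rb, 200 μM ATP, Sf9 cyclin/CDK enzyme, 1 h at 30° C; then anti-pRb Ser795 primary overnight at 4° C, HRP secondary, TMB. IC50 after no-substrate background subtraction.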

MCF-7 = experiment: Cytotoxicity assay (SRB), MCF-7; type: cell-based; details: Homo sapiens, MCF7, 72 h, MCF-7 cells, SRB, read-out: In Vitro Cellular Activity IC50 MCF-7
How it was run: as §1

cyclin B/CDK1 enzyme = target: T2, cyclin B/CDK1 enzyme (Homo sapiens, UniProt P06493); experiment: CDK1 ELISA kinase assay (phospho-Rb ser 795 detection); type: biochemical
T2 construct: purchased New England BioLabs; host or cells: Sf9 insect cells, recombinant baculovirus
T2 sequence (P06493 whole entry): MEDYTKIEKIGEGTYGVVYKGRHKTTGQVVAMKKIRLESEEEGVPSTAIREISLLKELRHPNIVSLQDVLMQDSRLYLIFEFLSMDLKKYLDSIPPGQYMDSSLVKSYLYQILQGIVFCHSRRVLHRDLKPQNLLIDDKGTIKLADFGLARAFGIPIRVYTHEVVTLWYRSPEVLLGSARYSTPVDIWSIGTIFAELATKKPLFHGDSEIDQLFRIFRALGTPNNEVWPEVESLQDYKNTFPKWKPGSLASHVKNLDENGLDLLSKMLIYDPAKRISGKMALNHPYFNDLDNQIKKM
T2 sequence (P14635 whole entry partner): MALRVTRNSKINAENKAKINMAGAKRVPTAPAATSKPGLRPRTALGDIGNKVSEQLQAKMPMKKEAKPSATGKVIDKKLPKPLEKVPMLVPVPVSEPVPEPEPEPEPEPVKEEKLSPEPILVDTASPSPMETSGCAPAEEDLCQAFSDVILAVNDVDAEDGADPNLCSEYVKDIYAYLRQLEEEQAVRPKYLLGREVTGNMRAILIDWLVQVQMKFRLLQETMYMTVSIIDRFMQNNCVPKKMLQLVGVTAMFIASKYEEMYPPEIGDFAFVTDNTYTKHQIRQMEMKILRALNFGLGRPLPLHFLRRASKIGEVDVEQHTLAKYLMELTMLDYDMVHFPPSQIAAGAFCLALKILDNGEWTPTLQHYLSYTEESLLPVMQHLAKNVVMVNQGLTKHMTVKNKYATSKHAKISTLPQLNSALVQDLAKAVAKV
How it was run: as §2

cyclin E/CDK2 enzyme = target: T3, cyclin E/CDK2 enzyme (Homo sapiens, UniProt P24941); experiment: CDK2 ELISA kinase assay (phospho-Rb ser 795 detection); type: biochemical
T3 construct: made in house; host or cells: Sf9 insect cells, recombinant baculovirus
How it was run: as §2

[1] = Homo sapiens, BT-474, 144 h, BT474 cells, 6 days, SRB; read-out: In Vitro Cellular Activity IC50 BT474
[2] = Homo sapiens, BT-474, 144 h, BT474 cells, SRB, 6 days; read-out: In Vitro Cellular Activity IC50 BT474
[3] = In Vitro Enzyme Assays, 200 μM ATP, read-out: CDK4 IC50
[4] = In Vitro Enzyme Assays, read-out: CDK1 IC50
[5] = In Vitro Enzyme Assays, read-out: CDK2 IC50
[6] = In Vitro Enzyme Assay, cyclin D1/cdk 4, read-out: CDK4 IC50
[7] = In Vitro Enzyme Assay, cyclin B/CDK1, read-out: CDK1 IC50
[8] = In Vitro Enzyme Assay, cyclin E/CDK2, read-out: CDK2 IC50

SMILES | IC50 (BT474; [1]) [µM] | IC50 (LoVo; 3 days) [µM] | IC50 (HCT-116; 3 days) [µM] | IC50 (cyclin D1/cdk 4 enzyme; In Vitro Enzyme Assay, read-out: CDK4 IC50) [µM] | IC50 (MCF-7; 3 days) [µM] | IC50 (cyclin B/CDK1 enzyme; In Vitro Enzyme Assay, read-out: CDK1 IC50) [µM] | IC50 (cyclin E/CDK2 enzyme; In Vitro Enzyme Assay, read-out: CDK2 IC50) [µM] | IC50 (BT474; [2]) [µM] | IC50 (LoVo; three days) [µM] | IC50 (HCT-116; three days) [µM] | IC50 (cyclin D1/cdk 4 enzyme; [3]) [µM] | IC50 (MCF-7; three days) [µM] | IC50 (cyclin B/CDK1 enzyme; [4]) [µM] | IC50 (cyclin E/CDK2 enzyme; [5]) [µM] | IC50 (cyclin D1/cdk 4 enzyme; [6]) [µM] | IC50 (cyclin B/CDK1 enzyme; [7]) [µM] | IC50 (cyclin E/CDK2 enzyme; [8]) [µM]
CN(CCN1CCCCC1)c1ccc(N/C=C2\C(=O)NC(=O)c3ccc(Br)cc32)cc1 [Example 865, (4Z)-6-bromo-4-[({4-[methyl(2-piperidin-1-ylethyl)amino]phenyl}amino)methylene]isoquinoline-1,3(2H,4H)-dione] | 7.5 | 3.6 | 3.1 | 4.3 | 5.3 | > 50 | > 50 |  |  |  |  |  |  |  |  |  | 
O=C1NC(=O)c2ccc(-c3ccco3)cc2C1=CNc1ccc(CN2CCCC2)cc1 [Example 169, 6-Furan-2-yl-4-[(4-pyrrolidin-1-ylmethyl-phenylamino)-methylene]-4H-isoquinoline-1,3-dione] |  |  |  |  |  |  |  | 1.8 | 5.2 | 2.6 | 0.2 | 2.5 | > 50 | > 50 |  |  | 
COc1ccc(C(=O)NN/C=C2\C(=O)NC(=O)c3ccc(Br)cc32)cc1O [Example 202, N′-[(Z)-(6-Bromo-1,3-dioxo-2,3-dihydroisoquinolin-4(1H)-ylidene)methyl]-3-hydroxy-4-methoxybenzohydrazide] |  |  |  |  |  |  |  | 18 | > 50 | > 50 | 33.2 | > 50 | > 50 | > 50 |  |  | 
O=C1NC(=O)c2ccc(-c3cccc(C(F)(F)F)c3)cc2C1=CNCc1ccc(O)c(O)c1 [Example 773, 4-[(3,4-Dihydroxy-benzylamino)-methylene]-6-(3-trifluoromethyl-phenyl)-4H-isoquinoline-1,3-dione] | 20.9 | 14.4 | 13.7 |  | 12.6 |  |  |  |  |  |  |  |  |  | 1.18 | > 50 | 16.5
O=C1NC(=O)c2ccc(I)cc2/C1=C/NCc1cc(O)ccc1I [Example 496, 4-[(5-Hydroxy-2-iodo-benzylamino)-methylene]-6-iodo-4H-isoquinoline-1,3-dione] | 7.4 | 3.1 | 2.6 |  | 5.4 |  |  |  |  |  |  |  |  |  | 2.7 | > 50 | > 50
CN1CCN(c2ncc(N/C=C3\C(=O)NC(=O)c4ccc(-c5ccoc5)cc43)cn2)CC1 [Example 484, (4Z)-6-(3-Furyl)-4-({[2-(4-methylpiperazin-1-yl)pyrimidin-5-yl]amino}methylene)isoquinoline-1,3(2H,4H)-dione] | 2.49 | 1.24 | 1.13 |  | 3.23 |  |  |  |  |  |  |  |  |  | 0.25 | 31 | > 50
O=C1NC(=O)c2ccc(I)cc2/C1=C/Nc1ccc(N2CCNCC2)cc1 [Example 378, (4Z)-6-Iodo-4-{[(4-piperazin-1-ylphenyl)amino]methylene}isoquinoline-1,3(2H,4H)-dione] |  |  |  |  |  |  |  | 2.9 | 2.6 | 1.5 | 0.65 | 1.1 | 20.4 | 15.4 |  |  | 
COc1ccc(CNC=C2C(=O)NC(=O)c3ccc(-c4ccco4)cc32)cc1O [Example 837, 6-Furan-2-yl-4-[(3-hydroxy-4-methoxy-benzylamino)-methylene]-4H-isoquinoline-1,3-dione] | 1.5 | 8.5 | 10.6 |  | 3.6 |  |  |  |  |  |  |  |  |  | 0.02 | > 50 | 24.2
C/C=C/C(=O)Nc1ccc(CN/C=C2\C(=O)NC(=O)c3ccc(I)cc32)cc1OC(=O)/C=C/C [Example 343, 2-[(2E)-But-2-enoylamino]-5-({[(Z)-(6-iodo-1,3-dioxo-2,3-dihydroisoquinolin-4(1H)-ylidene)methyl]amino}methyl)phenyl (2E)-but-2-enoate] |  |  |  |  |  |  |  | 7.7 | 9.8 | 12 | 7.8 | 14 | > 50 | 22.6 |  |  | 
CN(Cc1ccc(NC=C2C(=O)NC(=O)c3ccccc32)cc1)C1CCCCC1 [Example 577, 4-({4-[(Cyclohexyl-methyl-amino)-methyl]-phenylamino}-methylene)-4H-isoquinoline-1,3-dione] | 24.5 | 14.4 | 9.6 |  | 20.1 |  |  |  |  |  |  |  |  |  | 34 | 17.7 | > 50
CN(C)CCN(C)c1ccc(N/C=C2\C(=O)NC(=O)c3ccc(Br)cc32)cc1 [Example 231, (4Z)-6-Bromo-4-[({4-[[2-(dimethylamino)ethyl](methyl)amino]phenyl}amino)methylene]isoquinoline-1,3(2H,4H)-dione] |  |  |  |  |  |  |  | 8.3 | 10 | 4.1 | 3.6 | 2.4 | 29.6 | > 50 |  |  | 
O=C1NC(=O)c2ccc(Br)cc2/C1=C/Nc1ccc(-n2ccnc2)cc1 [Example 260, (4Z)-6-Bromo-4-({[4-(1H-imidazol-1-yl)phenyl]amino}methylene)isoquinoline-1,3(2H,4H)-dione] |  |  |  |  |  |  |  | > 50 | > 50 | 5.4 | 22.6 | > 50 | > 50 | 14.7 |  |  | 
O=C1NC(=O)c2ccc(Br)cc2/C1=C/NCCCN1CCOCC1 [Example 310, (Z)-6-Bromo-4-((3-morpholinopropylamino)methylene)isoquinoline-1,3(2H,4H)-dione] |  |  |  |  |  |  |  | 27 | 17 | 21 | 9.4 | 11 | > 50 | > 50 |  |  | 
COc1ccc(C(C)N/C=C2\C(=O)NC(=O)c3ccc(Br)cc32)cc1O (centres unmarked) [Example 189, (4Z)-6-Bromo-4-({[1-(3-hydroxy-4-methoxyphenyl)ethyl]amino}methylene)isoquinoline-1,3(2H,4H)-dione] |  |  |  |  |  |  |  | 5.8 | 6.4 | 7.2 | 0.37 | 9.9 | > 50 | > 50 |  |  | 
O=C1NC(=O)c2ccc(I)cc2/C1=C/NCc1ccc(I)c(O)c1 [Example 504, 4-[(3-Hydroxy-4-iodo-benzylamino)-methylene]-6-iodo-4H-isoquinoline-1,3-dione] | 1 | 4.3 | 3.9 |  | 1.5 |  |  |  |  |  |  |  |  |  | 0.008 | > 50 | > 50
O=C1NC(=O)c2ccc(Br)cc2/C1=C/NCc1ccc(OCCN2CCCC2)c(O)c1 [Example 143, (4Z)-6-Bromo-4-({[3-hydroxy-4-(2-pyrrolidin-1-ylethoxy)benzyl]amino}methylene) isoquinoline-1,3(2H,4H)-dione] |  |  |  |  |  |  |  | 5.7 | 8.8 | 3 | 0.06 | 4.3 | 13.6 | 1.1 |  |  | 
COc1cccc(-c2ccc3c(c2)/C(=C/Nc2ccc(CN4CCCCC4)cc2)C(=O)NC3=O)c1 [Example 117, (4Z)-6-(3-Methoxyphenyl)-4-({[4-(piperidin-1-ylmethyl)phenyl]amino}methylene)-isoquinoline-1,3(2H,4H)-dione] |  |  |  |  |  |  |  | 3 | 2.4 | 1.4 | 27.8 | 2.7 | > 50 | > 50 |  |  | 
